The pIC50 is −log10 of the IC50, conventionally taken in molar units.

Consider three compounds from BindingDB's records for doi:10.1021/jm00032a001 (Warner-Lambert, 1994).

A short description of experiment [1]: Tested for inhibition of E-selection expression by ELISA at the dose of 30 uM. In general terms: In an ELISA, binding on a coated surface is turned into a signal by an enzyme label.
The nature of experiment [2]: Tested for inhibition of ICAM expression by ELISA at the dose of 30 uM.
Experiment [3] can be described thus: Tested for inhibition of E-selectin expression by ELISA at the dose of 30 uM.
Experiment [4] is described as follows: Tested for inhibition of ICAM expression by ELISA at the dose of 30 uM. The source holds these as a separate data set.

pIC50: −log10 of the molar value.

Take `COc1ccc2c(c1)c(OC(C)C)c(C(N)=O)[s+]2[O-]` (stereo unspecified) [3-Isopropoxy-5-methoxy-1-oxo-benzo[b]thiophene-2-carboxylic acid amide]: the pIC50 in experiment [1] is 5.18; in experiment [2], 5.40.
As for `CNC(=O)c1sc2ccc(OC)cc2c1OC(C)C` [3-Isopropoxy-5-methoxy-benzo[b]thiophene-2-carboxylic acid methylamide], the negative-log IC50 (pIC50) in experiment [3] is 5.85; in experiment [4] it was 5.18.
On to `CC(C)Oc1c(C(N)=O)sc2ccc(O)cc12` [5-Hydroxy-3-isopropoxy-benzo[b]thiophene-2-carboxylic acid amide], for which the negative-log IC50 (pIC50) in experiment [3] was 5.48; in experiment [4], 5.46.
